Laboratory results reported in ChEMBL document CHEMBL1147306, “Studies on inhibitors of skin tumor promotion, VI. Inhibitory effects of quinones on Epstein-Barr virus activation” (J Nat Prod, 1989).
The source made the active and inactive calls. No cut-off for these calls is given here.

Key:
[1] = Cytotoxicity against human Raji cells assessed as cell viability at 10 molar ratio; format: cell-based; details: read-out: Activity
Raji [2] = assay: Inhibition of TPA-induced EBV-early antigen activation in human Raji cells at 10 molar ratio after 48 hrs by indirect immunofluorescence technique relative to TPA; format: cell-based; details: human gammaherpesvirus 4
[3] = Cytotoxicity against human Raji cells assessed as cell viability at 100 molar ratio; format: cell-based; details: read-out: Activity
Raji [4] = assay: Inhibition of TPA-induced EBV-early antigen activation in human Raji cells at 100 molar ratio after 48 hrs by indirect immunofluorescence technique relative to TPA; format: cell-based; details: human gammaherpesvirus 4
Mus musculus = species: Mus musculus; assay: Displacement of [3H]TPA from TPA receptor in ICR mouse dorsal epidermis
Raji [5] = assay: Inhibition of TPA-induced EBV-early antigen activation in human Raji cells at 500 molar ratio after 48 hrs by indirect immunofluorescence technique relative to TPA; format: cell-based; details: human gammaherpesvirus 4
[6] = Cytotoxicity against human Raji cells assessed as cell viability at 500 molar ratio; format: cell-based; details: read-out: Activity
[7] = Cytotoxicity against human Raji cells assessed as cell viability at 1000 molar ratio; format: cell-based; details: read-out: Activity

Row | SMILES | viability at 10 molar ratio [1] [%] | EBV-EA activation % of TPA control (Raji [2]) [%] | viability at 100 molar ratio [3] [%] | EBV-EA activation % of TPA control (Raji [4]) [%] | Activity (Mus musculus) | EBV-EA activation % of TPA control (Raji [5]) [%] | viability at 500 molar ratio [6] [%] | viability at 1000 molar ratio [7] [%]
1 | CC(C)=CC[C@@H](O)C1=CC(=O)c2c(O)ccc(O)c2C1=O [SHIKONIN] | > 80 | 31.5 | 50 | 15.8 | inactive | 0 | 10 | 0
2 | CC(=O)c1cc2c(o1)C(=O)c1ccccc1C2=O [NAPABUCASIN] | > 80 | 32.7 | 70 | 0 | inactive | 0 | 0 | 0
3 | Cc1ccc2c(n1)C(=O)c1c(O)ccc(O)c1C2=O | > 80 | 86 | > 80 | 43.8 | inactive | 13.5 | 60 | 10
4 | O=C1c2ccc3c(c2C(=O)c2cccc(O)c21)OCO3 | > 80 | 79.5 | > 80 | 53.8 | inactive | 36.5 | > 80 | > 80
5 | Cc1ccnc2c1C(=O)c1c(O)ccc(O)c1C2=O | > 80 | 88.6 | > 80 | 52.1 | inactive | 23.1 | 60 | 60
6 | COc1c(CO)c(O)cc2c1C(=O)c1cccc(O)c1C2=O [JUZUNOL] | > 80 | 100 | > 80 | 100 |  | 100 | > 80 | > 80
7 | Cc1ccnc2c1C(=O)c1ccccc1-2 [ONYCHINE] | > 80 | 100 | > 80 | 100 |  | 94.1 | > 80 | 70
8 | Cc1cnc2c(c1)C(=O)c1c(O)ccc(O)c1C2=O | > 80 | 100 | > 80 | 82.6 |  | 16.8 | 50 | 40
9 | CC1C=CNC2=C1C(=O)c1cc(O)ccc1C2=O (configuration not stated) | > 80 | 100 | > 80 | 66.7 |  | 62.1 | > 80 | 70
10 | O=C1c2ccc(O)cc2C(=O)c2ccc(O)cc21 [ANTHRAFLAVICACID] | > 80 | 100 | > 80 | 89.9 |  | 78.6 | > 80 | > 80
11 | Cc1ccnc2c1C(=O)c1ccccc1C2=O [CLEISTOPHOLINE] | > 80 | 100 | > 80 | 77.5 |  | 48.7 | > 80 | 70
12 | CN(C)C1=CC(=O)c2cccc(O)c2C1=O | > 80 | 100 | > 80 | 89.7 |  | 53.8 | > 80 | > 80
13 | O=C1c2ccccc2C(=O)c2c(O)ccc(O)c21 [QUINIZARIN] | > 80 | 100 | > 80 | 100 |  | 100 | > 80 | 70
14 | COc1cccc2c1C(=O)c1ccc3c(c1C2=O)OCO3 | > 80 | 100 | > 80 | 33 | inactive | 32.7 | > 80 | > 80
15 | Cc1cnc2c(c1)C(=O)c1cccc(O)c1C2=O | > 80 | 100 | 60 | 72.4 |  | 15.8 | > 80 | 30
16 | O=C1c2cccc(O)c2C(=O)c2cccc(O)c21 [ANTHRARUFIN] | > 80 | 100 | > 80 | 92.3 |  | 70.1 | > 80 | 70
17 | Cc1cc(O)c2c(c1)C(=O)c1cc(O)cc(O)c1C2=O [EMODIN] | > 80 | 100 | > 80 | 91.1 |  | 54.2 | > 80 | > 80
18 | COc1ccc(OC)c2c1C(=O)c1nccc(C)c1C2=O | > 80 | 100 | > 80 | 100 |  | 100 | > 80 | 70
19 | O=C1C=CC(=O)c2ccccc21 [NAPHTHOQUINONE] | > 80 | 100 | 50 | 37.5 |  | 0 | 50 | 20
20 | COc1c(CO)c(O)cc2c1C(=O)c1ccccc1C2=O [DAMNACANTHOL] | > 80 | 100 | > 80 | 100 |  | 91.2 | > 80 | 70
21 | CCCCCCCCCCCCCC(=O)O[C@@H]1[C@@H](C)[C@@]2(O)[C@@H](C=C(CO)C[C@]3(O)C(=O)C(C)=C[C@@H]23)[C@@H]2C(C)(C)[C@]12OC(C)=O |  |  |  |  | Active |  |  | 
